Laboratory results as given in patent US12281057B2 (VERTEX PHARMACEUTICALS INCORPORATED, priority 2017, dated 2025).

Biological target: truncated form of human NaV 1.8 with full channel activity (Homo sapiens, UniProt Q9Y5Y9)
Test: E-VIPR Assay Method A for detecting and measuring Nav inhibition (HEK cells, membrane potential FRET dyes, electrical stimulation)
Type: cell-based
Conditions: HEK cells expressing human NaV 1.8, HS (human serum) in compound loading buffer, 11 point dose response, top dose 3 μM, Table 20, read-out: Nav 1.8 MedChem Optical Assay EVIPR Assay Method A HS IC50
How it was run: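 Read-out: FRET membrane-potential dye ratio (460/580 nm) before and during E-VIPR field stimulation at 10 Hz for 10 s, expressed as % activity between DMSO and positive controls. Cells: HEK with truncated human NaV1.8; compound preincubated 30 min at room temp, final DMSO 0.625%.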

Sequence of truncated form of human NaV 1.8 with full channel activity (Q9Y5Y9 126-1722 limits assumed): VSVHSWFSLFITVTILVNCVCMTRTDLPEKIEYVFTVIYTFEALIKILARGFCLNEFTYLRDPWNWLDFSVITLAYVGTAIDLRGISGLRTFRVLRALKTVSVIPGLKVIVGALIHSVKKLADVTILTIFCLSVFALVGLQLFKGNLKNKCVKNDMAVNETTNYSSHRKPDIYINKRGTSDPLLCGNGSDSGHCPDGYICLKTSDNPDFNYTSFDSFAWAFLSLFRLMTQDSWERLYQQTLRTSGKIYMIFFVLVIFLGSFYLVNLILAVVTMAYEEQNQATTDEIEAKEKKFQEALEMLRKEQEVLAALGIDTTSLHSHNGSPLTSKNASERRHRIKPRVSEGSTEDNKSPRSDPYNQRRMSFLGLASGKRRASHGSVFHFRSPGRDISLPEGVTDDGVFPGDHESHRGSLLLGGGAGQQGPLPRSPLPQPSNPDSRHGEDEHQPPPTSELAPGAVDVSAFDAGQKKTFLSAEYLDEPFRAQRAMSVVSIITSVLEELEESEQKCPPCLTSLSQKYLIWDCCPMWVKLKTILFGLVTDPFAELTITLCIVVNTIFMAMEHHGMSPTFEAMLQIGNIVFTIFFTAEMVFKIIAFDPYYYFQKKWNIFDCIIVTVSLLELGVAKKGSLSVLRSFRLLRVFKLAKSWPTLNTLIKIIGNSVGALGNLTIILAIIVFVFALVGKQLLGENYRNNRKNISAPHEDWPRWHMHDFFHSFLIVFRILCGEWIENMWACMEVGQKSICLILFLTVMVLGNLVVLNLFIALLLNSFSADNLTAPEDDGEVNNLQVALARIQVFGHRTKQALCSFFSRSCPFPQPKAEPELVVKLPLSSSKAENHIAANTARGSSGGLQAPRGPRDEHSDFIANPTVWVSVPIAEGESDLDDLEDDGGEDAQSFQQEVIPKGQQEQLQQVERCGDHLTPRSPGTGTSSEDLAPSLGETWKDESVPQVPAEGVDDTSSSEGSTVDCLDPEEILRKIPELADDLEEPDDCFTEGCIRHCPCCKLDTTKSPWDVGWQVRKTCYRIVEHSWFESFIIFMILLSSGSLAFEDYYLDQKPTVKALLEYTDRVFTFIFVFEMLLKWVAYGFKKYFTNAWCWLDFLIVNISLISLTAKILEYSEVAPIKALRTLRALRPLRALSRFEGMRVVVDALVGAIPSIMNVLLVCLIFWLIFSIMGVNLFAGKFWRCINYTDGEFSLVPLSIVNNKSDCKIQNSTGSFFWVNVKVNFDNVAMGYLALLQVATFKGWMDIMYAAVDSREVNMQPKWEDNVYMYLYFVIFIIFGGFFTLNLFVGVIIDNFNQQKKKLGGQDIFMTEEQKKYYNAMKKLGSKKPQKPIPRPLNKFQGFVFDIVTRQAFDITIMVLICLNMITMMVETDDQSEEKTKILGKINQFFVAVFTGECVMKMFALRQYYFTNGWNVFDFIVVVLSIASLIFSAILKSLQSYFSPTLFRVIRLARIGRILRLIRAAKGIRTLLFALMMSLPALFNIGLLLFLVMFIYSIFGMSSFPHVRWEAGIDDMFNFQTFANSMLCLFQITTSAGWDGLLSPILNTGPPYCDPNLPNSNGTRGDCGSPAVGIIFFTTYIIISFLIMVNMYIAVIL

IC50	Structure (SMILES)
10 nM	COc1cc(OC(F)(F)F)ccc1Oc1ccc(C(F)(F)C(F)(F)F)cc1C(=O)Nc1ccc(F)c(C(N)=O)c1 [Compound 19, N-(3-carbamoyl-4-fluoro-phenyl)-2-[2-methoxy-4-(trifluoromethoxy)phenoxy]-5-(1,1,2,2,2-pentafluoroethyl)benzamide]
0.7 nM	[2H]C([2H])([2H])Oc1cc(OC(F)(F)F)ccc1Oc1ccc(C(F)(F)F)c(F)c1C(=O)Nc1ccc(F)c(C(N)=O)c1 [Compound 1, N-(3-carbamoyl-4-fluoro-phenyl)-2-fluoro-6-[2-(trideuteriomethoxy)-4-(trifluoromethoxy)phenoxy]-3-(trifluoromethyl)benzamide]
2 nM	COc1c(Oc2ccc(C(F)(F)F)c(F)c2C(=O)Nc2ccnc(C(N)=O)c2)ccc(OC(F)(F)F)c1F [Compound 26, 4-[[2-fluoro-6-[3-fluoro-2-methoxy-4-(trifluoromethoxy)phenoxy]-3-(trifluoromethyl)benzoyl]amino]pyridine-2-carboxamide]
9 nM	NC(=O)c1cc(NC(=O)c2c(Oc3ccc(OC(F)(F)F)c(F)c3)ccc(C(F)(F)F)c2F)ccc1F [Compound 18, N-(3-carbamoyl-4-fluoro-phenyl)-2-fluoro-6-[3-fluoro-4-(trifluoromethoxy)phenoxy]-3-(trifluoromethyl)benzamide]

Same assay, conditions: HEK cells expressing human NaV 1.8, HS (human serum) in compound loading buffer, 11 point dose response, top dose 3 μM, Table 20A, read-out: Nav 1.8 MedChem Optical Assay EVIPR Assay Method A HS IC50

IC50	Structure (SMILES)
40 nM	NC(=O)c1cc(NC(=O)c2c(Oc3ccc(OC(F)(F)F)cc3)ccc(C3CC3)c2F)ccc1F [Compound 71, N-(3-Carbamoyl-4-fluoro-phenyl)-3-cyclopropyl-2-fluoro-6-[4-(trifluoromethoxy)phenoxy]benzamide]
56 nM	NC(=O)c1cc(NC(=O)c2c(Oc3ccc(OC(F)(F)F)nc3)ccc(C(F)(F)F)c2F)ccc1F [Compound 69, N-(3-carbamoyl-4-fluoro-phenyl)-2-fluoro-6-[[6-(trifluoromethoxy)-3-pyridyl]oxy]-3-(trifluoromethyl)benzamide]
32 nM	COc1cc(OC(F)(F)F)ccc1Oc1ccc(C(F)(F)F)c(F)c1C(=O)Nc1cc(C)nc(C(N)=O)c1 [Compound 86, 4-[[2-fluoro-6-[2-methoxy-4-(trifluoromethoxy)phenoxy]-3-(trifluoromethyl)benzoyl]amino]-6-methyl-pyridine-2-carboxamide]
4 nM	[2H]C([2H])([2H])Oc1cc(OC(F)(F)F)ccc1Oc1ccc(C(F)(F)F)c(F)c1C(=O)Nc1ccc(C(N)=O)cc1 [Compound 127, N-(4-carbamoylphenyl)-2-fluoro-6-[2-(trideuteriomethoxy)-4-(trifluoromethoxy)phenoxy]-3-(trifluoromethyl)benzamide]
17 nM	[2H]C([2H])([2H])Oc1cc(OC(F)(F)F)ccc1Oc1ccc(OC(F)F)c(F)c1C(=O)Nc1ccnc(C(N)=O)c1 [Compound 155, 4-[[3-(Difluoromethoxy)-2-fluoro-6-[2-(trideuteriomethoxy)-4-(trifluoromethoxy)phenoxy]benzoyl]amino]pyridine-2-carboxamide]
210 nM	NC(=O)c1cc(NC(=O)c2c(Oc3ccc(OC(F)(F)F)cc3)cccc2C(F)(F)F)ccc1F [Compound 39, N-(3-Carbamoyl-4-fluoro-phenyl)-2-[4-(trifluoromethoxy)phenoxy]-6-(trifluoromethyl)benzamide]
410 nM	COc1cc(F)ccc1Oc1cc(Cl)cc(Cl)c1C(=O)Nc1ccc(C(N)=O)nc1 [Compound 182, 5-[[2,4-Dichloro-6-(4-fluoro-2-methoxy-phenoxy)benzoyl]amino]pyridine-2-carboxamide]
47 nM	COc1cc(Oc2ccc(C(F)(F)F)c(F)c2C(=O)Nc2ccc(F)c(C(N)=O)c2)ccc1OC(F)(F)F [Compound 126, N-(3-Carbamoyl-4-fluoro-phenyl)-2-fluoro-6-[3-methoxy-4-(trifluoromethoxy)phenoxy]-3-(trifluoromethyl)benzamide]
120 nM	NC(=O)c1cc(NC(=O)c2c(Oc3ccc(OC(F)(F)F)cc3)ccc3c2CCC3(F)F)ccn1 [Compound 191, 4-[[1,1-Difluoro-5-[4-(trifluoromethoxy)phenoxy]indane-4-carbonyl]amino]pyridine-2-carboxamide]
6 nM	COc1cc(OC(F)(F)F)ccc1Oc1ccc(Cl)c(F)c1C(=O)Nc1cc(C(N)=O)ncc1C [Compound 189, 4-[[3-Chloro-2-fluoro-6-[2-methoxy-4-(trifluoromethoxy)phenoxy]benzoyl]amino]-5-methyl-pyridine-2-carboxamide]
250 nM	[2H]C([2H])([2H])Oc1c(Oc2ccc(OC(F)(F)F)c(NC)c2C(=O)Nc2ccnc(C(=O)NC)c2)ccc(OC(F)(F)F)c1F [Compound 230, 4-[[6-[3-Fluoro-2-(trideuteriomethoxy)-4-(trifluoromethoxy)phenoxy]-2-(methylamino)-3-(trifluoromethoxy)benzoyl]amino]-N-methyl-pyridine-2-carboxamide]
113 nM	COc1cc(OC(F)(F)F)ccc1Oc1ccc(C(F)(F)F)c(F)c1C(=O)Nc1cccc(C(N)=O)n1 [Compound 169, 6-[[2-Fluoro-6-[2-methoxy-4-(trifluoromethoxy)phenoxy]-3-(trifluoromethyl)benzoyl]amino]pyridine-2-carboxamide]
150 nM	COc1cc(OC(F)(F)F)ccc1Oc1ccc(C(F)(F)F)c(OC)c1C(=O)Nc1ccc(C(N)=O)cn1 [Compound 205, 6-[[2-Methoxy-6-[2-methoxy-4-(trifluoromethoxy)phenoxy]-3-(trifluoromethyl)benzoyl]amino]pyridine-3-carboxamide]
9 nM	COc1cc(OC(F)(F)F)ccc1Oc1ccc(C(F)(F)F)c(F)c1C(=O)Nc1cc(F)cc(C(N)=O)c1 [Compound 100, N-(3-carbamoyl-5-fluoro-phenyl)-2-fluoro-6-[2-methoxy-4-(trifluoromethoxy)phenoxy]-3-(trifluoromethyl)benzamide]
9 nM	NC(=O)c1cc(NC(=O)c2c(Oc3ccc(OC(F)(F)F)cc3Cl)ccc(C(F)(F)F)c2F)ccn1 [Compound 51]
460 nM	NC(=O)c1cc(NC(=O)c2c(Cl)cc(Cl)cc2Oc2ccc(F)cc2)ccn1 [Compound 177, 4-[[2,4-Dichloro-6-(4-fluorophenoxy)benzoyl]amino]pyridine-2-carboxamide]
34 nM	COc1cc(OC(F)(F)F)ccc1Oc1cccc(C(F)(F)F)c1C(=O)Nc1ccc(F)c(C(N)=O)c1 [Compound 40, N-(3-Carbamoyl-4-fluoro-phenyl)-2-[2-methoxy-4-(trifluoromethoxy)phenoxy]-6-(trifluoromethyl)benzamide]
14 nM	COc1cc(OC(F)(F)F)ccc1Oc1ccc(C(F)(F)F)c(F)c1C(=O)Nc1cncc(C(N)=O)c1 [Compound 52, 5-[[2-fluoro-6-[2-methoxy-4-(trifluoromethoxy)phenoxy]-3-(trifluoromethyl)benzoyl]amino]pyridine-3-carboxamide]
5 nM	COc1cc(OC(F)(F)F)ccc1Oc1cnc(C(F)(F)F)c(OC)c1C(=O)Nc1ccnc(C(N)=O)c1 [Compound 166, N-(2-Carbamoyl-4-pyridyl)-3-methoxy-5-[2-methoxy-4-(trifluoromethoxy)phenoxy]-2-(trifluoromethyl)pyridine-4-carboxamide]
2700 nM	COc1cc(OC(F)(F)F)ccc1Oc1cc(C(F)(F)F)ncc1C(=O)Nc1ccc(OC)c(C(N)=O)c1 [Compound 239, N-(3-carbamoyl-4-methoxy-phenyl)-4-[2-methoxy-4-(trifluoromethoxy)phenoxy]-6-(trifluoromethyl)pyridine-3-carboxamide]
190 nM	COc1nc(Cl)ccc1Oc1ccc(C(F)(F)F)c(F)c1C(=O)Nc1ccnc(C(N)=O)c1 [Compound 303, 4-(6-((6-chloro-2-methoxypyridin-3-yl)oxy)-2-fluoro-3-(trifluoromethyl)benzamido)picolinamide]
400 nM	NC(=O)c1cc(NC(=O)c2cnc(C3CC3)cc2Oc2ccc(OC(F)(F)F)c(F)c2)ccc1F [Compound 42, N-(3-Carbamoyl-4-fluoro-phenyl)-6-cyclopropyl-4-[3-fluoro-4-(trifluoromethoxy)phenoxy]pyridine-3-carboxamide]
20 nM	COc1cc(OC(F)(F)F)ccc1Oc1ccc(C(F)(F)F)c(F)c1C(=O)Nc1ccnc(C(=O)N(C)C)c1 [Compound 97, 4-[[2-fluoro-6-[2-methoxy-4-(trifluoromethoxy)phenoxy]-3-(trifluoromethyl)benzoyl]amino]-N,N-dimethyl-pyridine-2-carboxamide]
50 nM	COc1cc(OC(F)(F)F)ccc1Oc1cc(C2CC2(F)F)ncc1C(=O)Nc1ccc(F)c(C(N)=O)c1 (stereo not shown) [Compound 108, N-(3-Carbamoyl-4-fluoro-phenyl)-6-(2,2-difluorocyclopropyl)-4-[2-methoxy-4-(trifluoromethoxy)phenoxy]pyridine-3-carboxamide]
22 nM	NC(=O)c1cc(NC(=O)c2c(Oc3ccc(OC(F)(F)F)cc3)ccc(C(F)F)c2F)ccc1F [Compound 74, N-(3-Carbamoyl-4-fluoro-phenyl)-3-(difluoromethyl)-2-fluoro-6-[4-(trifluoromethoxy)phenoxy]benzamide]
6 nM	[2H]C([2H])([2H])Oc1cc(OC(F)(F)F)ccc1Oc1ccc(C(F)(F)F)c(F)c1C(=O)Nc1cc[n+]([O-])c(C(N)=O)c1 [Compound 115, 4-[[2-Fluoro-6-[2-(trideuteriomethoxy)-4-(trifluoromethoxy)phenoxy]-3-(trifluoromethyl)benzoyl]amino]-1-oxido-pyridin-1-ium-2-carboxamide]
9 nM	[2H]C([2H])([2H])Oc1c(Oc2cc(Cl)cc(Cl)c2C(=O)Nc2ccnc(C(N)=O)c2)ccc(OC(F)(F)F)c1F [Compound 224, 4-[[2,4-Dichloro-6-[3-fluoro-2-(trideuteriomethoxy)-4-(trifluoromethoxy)phenoxy]benzoyl]amino]pyridine-2-carboxamide]
